According to PubChem BioAssay (NCI):
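Following 48 hours of exposure in 96-well plates, responses at five concentrations were used to interpolate endpoints linearly. TGI: total growth inhibition.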

Legend:
Experiment in all cases: NCI tumour cell line growth inhibition, 48 h
NCI-H522 lung = system: NCI-H522 lung
SK-MEL-28 melanoma = system: SK-MEL-28 melanoma
OVCAR-4 ovarian = system: OVCAR-4 ovarian
OVCAR-3 ovarian = system: OVCAR-3 ovarian
NCI/ADR-RES ovarian = system: NCI/ADR-RES ovarian
NCI-H460 lung = system: NCI-H460 lung
M14 melanoma = system: M14 melanoma
RXF 393 renal = system: RXF 393 renal
IGROV1 ovarian = system: IGROV1 ovarian
BT-549 breast = system: BT-549 breast
ACHN renal = system: ACHN renal
SF-268 CNS = system: SF-268 CNS
HOP-92 NSCLC = system: HOP-92 NSCLC
HOP-62 NSCLC = system: HOP-62 NSCLC
A549 NSCLC = system: A549 NSCLC
OVCAR-8 ovarian = system: OVCAR-8 ovarian
HT29 colon = system: HT29 colon
DU-145 prostate = system: DU-145 prostate
MDA-MB-435 = system: MDA-MB-435
MCF7 breast = system: MCF7 breast
COLO 205 colon = system: COLO 205 colon
HCT-116 colon = system: HCT-116 colon
SR leukemia = system: SR leukemia
PC-3 prostate = system: PC-3 prostate
TK-10 renal = system: TK-10 renal
HCT-15 colon = system: HCT-15 colon
MDA-MB-231 breast = system: MDA-MB-231 breast
HS 578T breast = system: HS 578T breast
RPMI-8226 leukemia = system: RPMI-8226 leukemia
UACC-62 melanoma = system: UACC-62 melanoma
U251 CNS = system: U251 CNS
A498 renal = system: A498 renal
SK-OV-3 ovarian = system: SK-OV-3 ovarian
OVCAR-5 ovarian = system: OVCAR-5 ovarian
SK-MEL-5 melanoma = system: SK-MEL-5 melanoma
786-0 renal = system: 786-0 renal
SF-539 CNS = system: SF-539 CNS
MDA-N = system: MDA-N
CAKI-1 renal = system: CAKI-1 renal
EKVX NSCLC = system: EKVX NSCLC
NCI-H23 lung = system: NCI-H23 lung
KM12 colon = system: KM12 colon
LOX IMVI melanoma = system: LOX IMVI melanoma
SF-295 CNS = system: SF-295 CNS
SW-620 colon = system: SW-620 colon
T-47D breast = system: T-47D breast
SNB-19 CNS = system: SNB-19 CNS
MOLT-4 leukemia = system: MOLT-4 leukemia
SK-MEL-2 melanoma = system: SK-MEL-2 melanoma
SN12C renal = system: SN12C renal
SNB-75 CNS = system: SNB-75 CNS
UO-31 renal = system: UO-31 renal
MALME-3M melanoma = system: MALME-3M melanoma
K-562 leukemia = system: K-562 leukemia
CCRF-CEM leukemia = system: CCRF-CEM leukemia

Measured: TGI

O=C(O)CSC1=NCCN1
> 100 µM: all assays above
